From patent US20250154165A1, “MULTIANTENNARY GLYCOLIPID MIMETICS” (CONSEJO SUPERIOR DE INVESTIGACIONES CIENTÍFICAS (CSIC), priority 2021, published 2025)

Assays:
[1] = test system: glycosidases of human fibroblast lysates; experiment: Stability of the glycosidic linkage to glycosidases upon incubation with human fibroblast lysates; format: in vitro ADME; conditions: 4 h, 37° C., compound solution 200 μM, 0.1 M citrate buffer pH 4.5
Description: The stability of the glyosidic linkage in compounds 2, 4, 6, 8, 10, 12, 14, 16, 18, 20, 22, 23, 25, 27 and 29, selected as representative examples, upon incubation with human fibroblast lysates for 4 h was checked. For such purpose, cells were scraped into ice-cold H2O (10^6 cells mL^−1) and lysed by sonication. Insoluble materials were removed by centrifugation at 15,000 rpm for 5 min and protein concentrations were determined with Protein Assay Rapid Kit (WAKO, Tokyo, Japan). 10 μL of the lysates in 0.1% Triton X-100 in distilled water were incubated at 37° C. with 20 μL of the compound solution (200 μM) in 0.1 M citrate buffer, pH 4.5. In control experiments, the activity of several lysosomas glycosidases was confirmed using fluorescent substrates. The substrates were 4-methylumbelliferone (4-MU)-conjugated β-D-glucopyranoside (for GCase), α-D-glucopyranoside (for α-glucosidase), α-D-galactopyranoside (for α-Galase) and β-D-galactopyranoside (for β-galactosidase). The liberated 4-methylumbelliferone was measured in the black-well plate with a Perkin Elmer Luminescence Spectrometer (excitation wavelength: 340 nm; emission: 460 nm).

STAT3 = experiment: Signal transduction by multiplex bead array: STAT3 phosphorylation; format: cell-based; conditions: comparing to LPS treatment alone (FIG. 4)
Excerpt: FIG. 4. […] Compound 12, a representative compound of the invention, was examined in term of signal transduction to explore how the new compounds exert their suppressive effect, using the multiplex bead array.
Using the multiplex bead array, we examined how the new compounds might exert their suppressive effect in term of signal transduction.

[2] = test system: Splenocytes treated with αGalCer; experiment: Suppression of αGalCer-induced inflammation (splenocytes in vitro); format: cell-based, mouse; conditions: splenocytes treated concurrently with compound and αGalCer (FIG. 5)
Description: FIG. 5. […] Splenocytes were treated concurrently with the compounds of the invention and αGalCer to assess the suppressive function of compounds on αGalCer-induced inflammation, with several compounds showing prominent suppressive function.
The whole spleen was surgically removed from a mouse and mechanically dissociated into a single cell suspension of splenocytes, which were then cultured in the complete RPMI 1640 medium (cRPMI). Human peripheral blood mononuclear cells (PBMCs) from healthy volunteers were collected from whole blood through gradient-centrifugation with Histopaque-1077 (Sigma-Aldrich).
Splenocytes were treated concurrently with the compounds of the invention and αGalCer to assess their ability to suppress αGalCer-induced inflammation.

B6 mice = experiment: Adjuvancy function in vivo (serum IFNγ and IL-4 after injection)
Description: FIG. 11. […] The adjuvancy capability of the selected compounds 8, 12, 18, 27, and 29 in vivo was assessed by measuring the serum level of IFNγ and IL-4 induced after injecting them into B6 mice.
Besides assessing the ability of the new compounds to suppress inflammation, we also looked into their function to act as adjuvants, i.e. their ability to promote desirable immunological trends in the development of vaccines. We measured the in vivo adjuvancy capability of selected compounds 8, 12, 18, 27, and 29 in inducing IFNγ and IL-4 in B6 mice (FIG. 11).

[3] = test system: CD8+ T cells in the spleen, OT-1 adoptive transfer mouse model; experiment: Th1 immune response in vivo (CD8+ T cell proliferation, OT-1 adoptive transfer mouse model); conditions: OT-1 adoptive transfer mouse model (FIG. 13)
Description: FIG. 13. […] The adjuvancy capability of selected compounds 12 and 27 in vivo was assessed by their capability in promoting the proliferation of CD8^+ T cells in the spleen in the OT-1 adoptive transfer mouse model as described in the scheme.
For ovalbumin (OVA) challenge, mice were sensitized intraperitoneally (i.p.) with 50 μg of OVA with 2% alhydrogel adjuvant (InvivoGen). Mice were challenged three times with 50 μg of OVA on day 7 post-sensitization, either daily or every other day. Mice were sacrificed the day after the last OVA challenge. The scheme of the OT-1 adoptive transfer mouse model for examining the proliferation of CD8^+ T cells in adjuvanting OVA challenge is described in FIG. 13.
Compounds 12 and 27 were injected into OT-1 mice (transgenic mice that express a TCR that is specific for an ovalbumin OVA peptide) to validate the Th1-biased immunomodulation property.

[4] = test system: splenocytes isolated from MyD88 KO mice; experiment: MyD88 dependency of cytokine induction (splenocytes from MyD88 KO mice in vitro); format: cell-based
Excerpt: FIG. 14. […] The dependency of the compounds of the invention on functional MyD88 for biological function was examined using the representative compound 12, with immune cells isolated from MyD88 knocked-out mice. […] IL-4 was not detectable with compound 12 treatment, indicating a Th1-biased property.
(§1) To determine whether the adjuvancy function of the representative compound 12 is MyD88-dependent or not, we performed experiments with immune cells isolated from MyD88 knocked-out (KO) mice. […] Data are dose-dependent and differences become more pronounced at the higher concentrations. […] Taken together, the results support that compound 12 adjuvancy function is MyD88-dependent.

[5] = test system: BMDC from MyD88 deficient mice; experiment: MyD88 dependency of BMDC maturation; format: cell-based; conditions: BMDC from MyD88 deficient mice (FIG. 16)
Excerpt: as §1

[6] = 2 hours after injection (FIG. 11)
[7] = 18 hours after injection (FIG. 11)

## CCCCCCCCCCCCNC(=O)C(COC1C(O)C(O)C(O)C2COC(=O)N21)NC(=O)CCCCCCCCCCC (centres unmarked) [Compound 12]
[1]
  hydrolysis of the glycolipid mimetic (free polysubstituted 2-oxa-3-oxoindolizidine detected by gas chromatography): No traces of the free polysubstituted 2-oxa-3-oxoindolizidine
STAT3
  phosphorylation of STAT3: significant reduction of phosphorylation
[2]
  suppressive function on αGalCer-induced inflammation: prominent inflammation-suppressing function
B6 mice; [6]
  serum level of IFNγ induced: significant capability in inducing
  serum level of IL-4 induced: significant capability in inducing
B6 mice; [7]
  serum level of IFNγ induced: significant detectable level
  serum level of IL-4 induced: significant detectable level
[3]
  proliferation of CD8+ T cells in the spleen: significant CD8^+ T cell proliferation
[4]; splenocytes isolated from MyD88 KO mice (FIG. 14)
  ability to induce IFNγ: completely abrogated
[4]; splenocytes, MyD88 experiment (FIG. 14)
  IL-4 induction: no IL-4 induction was observed
[5]
  maturation of BMDC induced by compound treatment: impeded
